From patent US20150011423A1, “MEANS AND METHODS FOR ASSESSING KIDNEY TOXICITY” (BASF SE, priority 2011, published 2015)
Marks after values point to notes of the source that are not given here.

Tested on: rats
Experiment: 28-day repeated dose study in rats with mass spectrometry-based plasma metabolite profiling (GC-MS, LC-MS, SPE-LC-MS); treatment ratios versus control
Conditions: plasma; for Hippuric acid, treatment ratio versus control / Lactate, treatment ratio versus control: Table 5b tubular necrosis; for Adrenaline (Epinephrine), treatment ratio versus control / Glucosamine, treatment ratio versus control / Histamine, treatment ratio versus control / Mannosamine, treatment ratio versus control: Table 2b glomerular-tubular defect
[1] = female rats, day 28, high dose, Table 5a tubular necrosis
[2] = male rats, day 28, high dose, Table 8a direct tubular effect
[3] = male rats, day 28, high dose, Table 8b direct tubular effect
[4] = female rats, day 14, high dose, Table 2a glomerular-tubular defect
[5] = female rats, day 28, high dose, Table 2a glomerular-tubular defect
[6] = male rats, day 7, high dose, Table 2c glomerular-tubular defect
[7] = male rats, day 7, high dose, Table 2d glomerular-tubular defect
[8] = male rats, day 14, high dose, Table 2c glomerular-tubular defect
[9] = male rats, day 14, high dose, Table 2d glomerular-tubular defect
[10] = male rats, day 28, high dose, Table 2c glomerular-tubular defect
[11] = male rats, day 28, high dose, Table 2d glomerular-tubular defect
[12] = female rats, day 7, high dose, Table 4a inhibition of weak acid excretion
[13] = female rats, day 7, high dose, Table 4b inhibition of weak acid excretion
[14] = female rats, day 14, high dose, Table 4a inhibition of weak acid excretion
[15] = female rats, day 14, high dose, Table 4b inhibition of weak acid excretion
[16] = female rats, day 28, high dose, Table 4a inhibition of weak acid excretion
[17] = female rats, day 28, high dose, Table 4b inhibition of weak acid excretion

C[C@@H]1[C@H](O)[C@@H](C)/C=C/C=C/C=C/C=C/C=C/C=C/C=C/[C@H](O[C@@H]2O[C@H](C)[C@@H](O)[C@H](N)[C@@H]2O)C[C@@H]2O[C@](O)(C[C@@H](O)C[C@@H](O)[C@H](O)CC[C@@H](O)C[C@@H](O)CC(=O)O[C@H]1C)C[C@H](O)[C@H]2C(=O)O [Amphotericin B]
Docosahexaenoic acid (C22:cis[4,7,10,13,16,19]6), treatment ratio versus control [1]: 1.32 *
Docosapentaenoic acid (C22:cis[7,10,13,16,19]5), treatment ratio versus control [1]: 1.23 *
Eicosanoic acid (C20:0), treatment ratio versus control [1]: 1.18 *
Glycerol, lipid fraction, treatment ratio versus control [1]: 1.31 *
Leucine, treatment ratio versus control [1]: 1.21 *
Phosphate (inorganic and organic phosphates), treatment ratio versus control [1]: 1.25 *
Hippuric acid, treatment ratio versus control (female rats, day 28, high dose): 0.44 *
Lactate, treatment ratio versus control (female rats, day 28, high dose): 0.68 *

ClC(Cl)=C(Cl)C(Cl)=C(Cl)Cl [Hexachlorobutadiene]
Docosahexaenoic acid (C22:cis[4,7,10,13,16,19]6), treatment ratio versus control [1]: 1.19 *
Docosapentaenoic acid (C22:cis[7,10,13,16,19]5), treatment ratio versus control [1]: 1.61 *
Eicosanoic acid (C20:0), treatment ratio versus control [1]: 1.56 *
Glycerol, lipid fraction, treatment ratio versus control [1]: 1.29 *
Leucine, treatment ratio versus control [1]: 1.34 *
Phosphate (inorganic and organic phosphates), treatment ratio versus control [1]: 1.19 *
Hippuric acid, treatment ratio versus control (female rats, day 28, high dose): 0.35 *
Lactate, treatment ratio versus control (female rats, day 28, high dose): 0.62 *
Glycerol-3-phosphate, polar fraction, treatment ratio versus control [2]: 1.58 *
Isoleucine, treatment ratio versus control [2]: 1.11 *
Leucine, treatment ratio versus control [2]: 1.17 *
Lysophosphatidylethanolamine (C22:0), treatment ratio versus control [2]: 1.33 *
Ornithine, treatment ratio versus control [2]: 1.35 *
TAG No 02, treatment ratio versus control [2]: 1.47 *
Threonine, treatment ratio versus control [2]: 1.3 *
14-Methylhexadecanoic acid, treatment ratio versus control [3]: 0.82 *
16-Methylheptadecanoic acid, treatment ratio versus control [3]: 0.51 *
18-Hydroxy-11-deoxycorticosterone, treatment ratio versus control [3]: 0.49 *
Citrate, treatment ratio versus control [3]: 0.93 *
DAG (C18:1, C18:2), treatment ratio versus control [3]: 0.66 *
Elaidic acid (C18:trans[9]1), treatment ratio versus control [3]: 0.8 *
Isopalmitic acid (C16:0), treatment ratio versus control [3]: 0.61 *
Ketoleucine, treatment ratio versus control [3]: 0.91 *
Linolenic acid (C18:cis[9,12,15]3), treatment ratio versus control [3]: 0.6 *
Lysophosphatidylcholine (C18:0), treatment ratio versus control [3]: 0.97 *
Oleic acid (C18:cis[9]1), treatment ratio versus control [3]: 0.71 *
Palmitoleic acid (C16:cis[9]1), treatment ratio versus control [3]: 0.25 *
TAG (C16:0, C16:1), treatment ratio versus control [3]: 0.51 *
trans-4-Hydroxyproline, treatment ratio versus control [3]: 0.74 *

C[C@H](CS)C(=O)N1CCC[C@H]1C(=O)O [Captopril]
3-Hydroxyindole, treatment ratio versus control [4]: 1.35
3-Indoxylsulfate, treatment ratio versus control [4]: 1.2
Creatine, treatment ratio versus control [4]: 1.18*
Creatinine, treatment ratio versus control [4]: 1.06
Elaidic acid (C18:trans[9]1), treatment ratio versus control [4]: 1.18
Lysophosphatidylcholine (C20:4), treatment ratio versus control [4]: 1.04
Xylitol, treatment ratio versus control [4]: 1.17
Adrenaline (Epinephrine), treatment ratio versus control (female rats, day 14, high dose): 1.27
Glucosamine, treatment ratio versus control (female rats, day 14, high dose): 0.4 *
Histamine, treatment ratio versus control (female rats, day 14, high dose): 0.93
Mannosamine, treatment ratio versus control (female rats, day 14, high dose): 0.69 *
3-Hydroxyindole, treatment ratio versus control [5]: 1.21 *
3-Indoxylsulfate, treatment ratio versus control [5]: 1.21 *
Creatine, treatment ratio versus control [5]: 1.33 *
Creatinine, treatment ratio versus control [5]: 1.93 *
Elaidic acid (C18:trans[9]1), treatment ratio versus control [5]: 1.22 *
Lysophosphatidylcholine (C20:4), treatment ratio versus control [5]: 1.24 *
Xylitol, treatment ratio versus control [5]: 1.31 *
Adrenaline (Epinephrine), treatment ratio versus control (female rats, day 28, high dose): 0.28 *
Glucosamine, treatment ratio versus control (female rats, day 28, high dose): 1.06^
Histamine, treatment ratio versus control (female rats, day 28, high dose): 0.81 *
Mannosamine, treatment ratio versus control (female rats, day 28, high dose): 1.04^
Creatine, treatment ratio versus control [6]: 1.16 *
Creatinine, treatment ratio versus control [6]: 1.32^
Glycerol-3-phosphate, polar fraction, treatment ratio versus control [6]: 1.28 *
Lysophosphatidylcholine (C18:2), treatment ratio versus control [6]: 1.07 *
Threonic acid, treatment ratio versus control [6]: 1.37 *
4-Hydroxy-3-methoxyphenylglycol (HMPG), treatment ratio versus control [7]: 1.07^
Cysteine, treatment ratio versus control [7]: 0.59 *
Isopalmitic acid (C16:0), treatment ratio versus control [7]: 0.78 *
Metanephrine, treatment ratio versus control [7]: 0.81 *
Normetanephrine, treatment ratio versus control [7]: 0.9
Creatine, treatment ratio versus control [8]: 1.06 *
Creatinine, treatment ratio versus control [8]: 1.12 *
Glycerol-3-phosphate, polar fraction, treatment ratio versus control [8]: 0.97^
Lysophosphatidylcholine (C18:2), treatment ratio versus control [8]: 1.2 *
Threonic acid, treatment ratio versus control [8]: 1.27 *
4-Hydroxy-3-methoxyphenylglycol (HMPG), treatment ratio versus control [9]: 0.91 *
Cysteine, treatment ratio versus control [9]: 0.77 *
Isopalmitic acid (C16:0), treatment ratio versus control [9]: 0.64 *
Metanephrine, treatment ratio versus control [9]: 0.7 *
Normetanephrine, treatment ratio versus control [9]: 0.89 *
Creatine, treatment ratio versus control [10]: 1.31
Creatinine, treatment ratio versus control [10]: 1.05
Glycerol-3-phosphate, polar fraction, treatment ratio versus control [10]: 1.29 *
Lysophosphatidylcholine (C18:2), treatment ratio versus control [10]: 1.09
Threonic acid, treatment ratio versus control [10]: 1.14 *
4-Hydroxy-3-methoxyphenylglycol (HMPG), treatment ratio versus control [11]: 0.86 *
Cysteine, treatment ratio versus control [11]: 0.72 *
Isopalmitic acid (C16:0), treatment ratio versus control [11]: 0.83^
Metanephrine, treatment ratio versus control [11]: 0.76 *
Normetanephrine, treatment ratio versus control [11]: 0.73 *

Oc1c(Cl)c(Cl)c(Cl)c(Cl)c1Cl [Pentachlorophenol]
Glycerol, lipid fraction, treatment ratio versus control [12]: 1.56 *
Linoleic acid (C18:cis[9,12]2), treatment ratio versus control [12]: 1.35 *
Lysophosphatidylcholine (C18:2), treatment ratio versus control [12]: 1.32 *
Phosphatidylcholine (C16:0, C16:0), treatment ratio versus control [12]: 1.04^
Phosphatidylcholine (C16:0, C18:2), treatment ratio versus control [12]: 1.02^
Phosphatidylcholine (C16:0, C20:5), treatment ratio versus control [12]: 1.05 *
Phosphatidylcholine (C16:1, C18:2), treatment ratio versus control [12]: 0.87^
Phosphatidylcholine (C18:0, C18:1), treatment ratio versus control [12]: 0.98^
Phosphatidylcholine (C18:1, C18:2), treatment ratio versus control [12]: 0.85^
gamma-Linolenic acid (C18:cis[6,9,12]3), treatment ratio versus control [12]: 0.78 *
Arginine, treatment ratio versus control [13]: 0.56 *
Indole-3-lactic acid, treatment ratio versus control [13]: 0.62 *
Ketoleucine, treatment ratio versus control [13]: 0.6 *
Proline, treatment ratio versus control [13]: 0.73 *
Tryptophan, treatment ratio versus control [13]: 0.6 *
trans-4-Hydroxyproline, treatment ratio versus control [13]: 0.87 *
Glycerol, lipid fraction, treatment ratio versus control [14]: 2.38 *
Linoleic acid (C18:cis[9,12]2), treatment ratio versus control [14]: 1.8 *
Lysophosphatidylcholine (C18:2), treatment ratio versus control [14]: 1.41 *
Phosphatidylcholine (C16:0, C16:0), treatment ratio versus control [14]: 1.25 *
Phosphatidylcholine (C16:0, C18:2), treatment ratio versus control [14]: 1.34 *
Phosphatidylcholine (C16:0, C20:5), treatment ratio versus control [14]: 1.57 *
Phosphatidylcholine (C16:1, C18:2), treatment ratio versus control [14]: 1.32 *
Phosphatidylcholine (C18:0, C18:1), treatment ratio versus control [14]: 1.54 *
Phosphatidylcholine (C18:1, C18:2), treatment ratio versus control [14]: 1.4 *
gamma-Linolenic acid (C18:cis[6,9,12]3), treatment ratio versus control [14]: 1.81^
Arginine, treatment ratio versus control [15]: 0.72^
Indole-3-lactic acid, treatment ratio versus control [15]: 0.65 *
Ketoleucine, treatment ratio versus control [15]: 0.64 *
Proline, treatment ratio versus control [15]: 0.74 *
Tryptophan, treatment ratio versus control [15]: 0.62 *
trans-4-Hydroxyproline, treatment ratio versus control [15]: 0.92^
Glycerol, lipid fraction, treatment ratio versus control [16]: 1.61 *
Linoleic acid (C18:cis[9,12]2), treatment ratio versus control [16]: 1.73 *
Lysophosphatidylcholine (C18:2), treatment ratio versus control [16]: 1.66 *
Phosphatidylcholine (C16:0, C16:0), treatment ratio versus control [16]: 1.1 *
Phosphatidylcholine (C16:0, C18:2), treatment ratio versus control [16]: 1.49 *
Phosphatidylcholine (C16:0, C20:5), treatment ratio versus control [16]: 1.67 *
Phosphatidylcholine (C16:1, C18:2), treatment ratio versus control [16]: 1.54 *
Phosphatidylcholine (C18:0, C18:1), treatment ratio versus control [16]: 1.41 *
Phosphatidylcholine (C18:1, C18:2), treatment ratio versus control [16]: 1.3 *
gamma-Linolenic acid (C18:cis[6,9,12]3), treatment ratio versus control [16]: 3.23 *
Arginine, treatment ratio versus control [17]: 0.44 *
Indole-3-lactic acid, treatment ratio versus control [17]: 0.49 *
Ketoleucine, treatment ratio versus control [17]: 0.6 *
Proline, treatment ratio versus control [17]: 0.74 *
Tryptophan, treatment ratio versus control [17]: 0.54 *
trans-4-Hydroxyproline, treatment ratio versus control [17]: 0.94 *
